In the supplement of paper PMC11061612:

What was measured:
Trametinib = compound: CC(=O)Nc1cccc(-n2c(=O)n(C3CC3)c(=O)c3c(Nc4ccc(I)cc4F)n(C)c(=O)c(C)c32)c1 [Trametinib]; conditions: max 1 µM
How it was run: (§1)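 Viability was measured with CellTiter-Glo 2.0 luminescence after 72 hours of dosing at a final DMSO of typically 0.2%, and scaled between blank-well and DMSO-well means. Beforehand, cancer cell lines sat 24 hours at 37°C and 5% CO2 in 1536-well plates in 7.5 μl DMEM/F12 or RPMI with 10% FBS. A non-linear mixed effects model fitted two-parameter logistic curves to the dose responses. The single-agent IC50 comes from these fits.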

Palbociclib = compound: CC(=O)c1c(C)c2cnc(Nc3ccc(N4CCNCC4)cn3)nc2n(C2CCCC2)c1=O [Palbociclib]; conditions: max 10 µM
How it was run: as §1

MK-2206 = compound: NC1(c2ccc(-c3nc4ccn5c(=O)[nH]nc5c4cc3-c3ccccc3)cc2)CCC1 [MK-2206]; conditions: max 10 µM
How it was run: as §1

[1] = compound: O=C(Nc1ccc2[nH]nc(-c3ccncc3)c2c1)[C@@H]1CCN(CC(=O)N2CCN(c3ccc(-c4ncccn4)cc3)CC2)C1; conditions: max 5 µM
How it was run: as §1

Etoposide = compound: COc1cc([C@@H]2c3cc4c(cc3[C@@H](O[C@@H]3O[C@@H]5CO[C@@H](C)O[C@H]5[C@H](O)[C@H]3O)[C@H]3COC(=O)[C@H]23)OCO4)cc(OC)c1O [Etoposide]; conditions: max 10 µM
How it was run: as §1

Doxorubicin = compound: COc1cccc2c1C(=O)c1c(O)c3c(c(O)c1C2=O)C[C@@](O)(C(=O)CO)C[C@@H]3O[C@H]1C[C@H](N)[C@H](O)[C@H](C)O1 [Doxorubicin]; conditions: max 1 µM
How it was run: as §1

AZD1775 = compound: C=CCn1c(=O)c2cnc(Nc3ccc(N4CCN(C)CC4)cc3)nc2n1-c1cccc(C(C)(C)O)n1 [AZD1775]; conditions: max 3 µM
How it was run: as §1

Olaparib = compound: O=C(c1cc(Cc2n[nH]c(=O)c3ccccc23)ccc1F)N1CCN(C(=O)C2CC2)CC1 [Olaparib]; conditions: max 10 µM
How it was run: as §1

Venetoclax = compound: CC1(C)CCC(CN2CCN(c3ccc(C(=O)NS(=O)(=O)c4ccc(NCC5CCOCC5)c([N+](=O)[O-])c4)c(Oc4cnc5[nH]ccc5c4)c3)CC2)=C(c2ccc(Cl)cc2)C1 [Venetoclax]; conditions: max 1 µM
How it was run: as §1

AZD4320 = compound: CN(CC[C@H](CSC1=CC=CC=C1)NC2=C(C=C(C=C2)S(=O)(=O)NC(=O)C3=CC=C(C=C3)N4CCC(CC4)[C@H](C5=CC=CC=C5C6=CC=C(C=C6)Cl)O)S(=O)(=O)C(F)(F)F)CCO [AZD4320]; conditions: max 1 µM
How it was run: as §1

SN-38 = compound: CCc1c2c(nc3ccc(O)cc13)-c1cc3c(c(=O)n1C2)COC(=O)[C@]3(O)CC [SN-38]; conditions: max 0.3 µM
How it was run: as §1

AZD5153 = compound: COc1nnc2ccc(N3CCC(c4ccc(OCCN5CCN(C)C(=O)[C@H]5C)cc4)CC3)nn12 [AZD5153]; conditions: max 1 µM
How it was run: as §1

AZD6738 = compound: C[C@@H]1COCCN1C2=NC(=NC(=C2)C3(CC3)[S@](=N)(=O)C)C4=C5C=CNC5=NC=C4 [AZD6738]; conditions: max 10 µM
How it was run: as §1

AZD2811 = compound: CCN(CCO)CCCOc1ccc2c(Nc3cc(CC(=O)Nc4cccc(F)c4)[nH]n3)ncnc2c1 [AZD2811]; conditions: max 1 µM
How it was run: as §1

5-Fluorouracil = compound: O=c1[nH]cc(F)c(=O)[nH]1 [5-Fluorouracil]; conditions: max 20 µM
How it was run: as §1

AZD8186 = compound: C[C@@H](Nc1cc(F)cc(F)c1)c1cc(C(=O)N(C)C)cc2c(=O)cc(N3CCOCC3)oc12 [AZD8186]
How it was run: as §1

AZD5363 = compound: C1CN(CCC1(C(=O)N[C@@H](CCO)C2=CC=C(C=C2)Cl)N)C3=NC=NC4=C3C=CN4 [AZD5363]; conditions: max 10 µM
How it was run: as §1

Selumetinib = compound: Cn1cnc2c(F)c(Nc3ccc(Br)cc3Cl)c(C(=O)NOCCO)cc21 [Selumetinib]; conditions: max 10 µM
How it was run: as §1

AZD5991 = compound: Cc1c2c(nn1C)CSCc1cc(n(C)n1)CSc1cc(c3ccccc3c1)OCCCc1c(C(=O)O)n(C)c3c-2c(Cl)ccc13 [AZD5991]; conditions: max 1 µM
How it was run: as §1

Paclitaxel = compound: CC(=O)O[C@H]1C(=O)[C@@]2(C)[C@H]([C@H](OC(=O)c3ccccc3)[C@]3(O)C[C@H](OC(=O)[C@H](O)[C@@H](NC(=O)c4ccccc4)c4ccccc4)C(C)=C1C3(C)C)[C@]1(OC(C)=O)CO[C@@H]1C[C@@H]2O [Paclitaxel]; conditions: max 3 µM
How it was run: as §1

AZD0156 = compound: CN(C)CCCOc1ccc(-c2ccc3ncc4c(c3c2)n(C2CCOCC2)c(=O)n4C)cn1 [AZD0156]; conditions: max 3 µM
How it was run: as §1

Crizotinib = compound: C[C@@H](Oc1cc(-c2cnn(C3CCNCC3)c2)cnc1N)c1c(Cl)ccc(F)c1Cl [Crizotinib]; conditions: max 10 µM
How it was run: as §1

Taselisib = compound: Cc1nc(-c2cn3c(n2)-c2ccc(-c4cnn(C(C)(C)C(N)=O)c4)cc2OCC3)n(C(C)C)n1 [Taselisib]; conditions: max 10 µM
How it was run: as §1

SRA737 = compound: N#Cc1cnc(Nc2cc(NC[C@H]3CNCCO3)c(C(F)(F)F)cn2)cn1 [SRA737]; conditions: max 10 µM
How it was run: as §1

Dasatinib = compound: CC1=C(C(=CC=C1)Cl)NC(=O)C2=CN=C(S2)NC3=CC(=NC(=N3)C)N4CCN(CC4)CCO [Dasatinib]; conditions: max 2 µM
How it was run: as §1

Gefitinib = compound: COc1cc2ncnc(Nc3ccc(F)c(Cl)c3)c2cc1OCCCN1CCOCC1 [Gefitinib]; conditions: max 10 µM
How it was run: as §1

Savolitinib = compound: C[C@@H](c1ccc2nccn2c1)n1nnc2ncc(-c3cnn(C)c3)nc21 [Savolitinib]; conditions: max 1 µM
How it was run: as §1

AZD7648 = compound: Cc1cc2ncnn2cc1Nc1ncc2c(n1)n(C1CCOCC1)c(=O)n2C [AZD7648]; conditions: max 10 µM
How it was run: as §1

Alisertib = compound: COc1cc(Nc2ncc3c(n2)-c2ccc(Cl)cc2C(c2c(F)cccc2OC)=NC3)ccc1C(=O)O [Alisertib]; conditions: max 10 µM
How it was run: as §1

Gemcitabine = compound: Nc1ccn([C@@H]2O[C@H](CO)[C@@H](O)C2(F)F)c(=O)n1 [Gemcitabine]; conditions: max 0.3 µM
How it was run: as §1

Prexasertib = compound: COc1cccc(OCCCN)c1-c1cc(Nc2cnc(C#N)cn2)n[nH]1 [Prexasertib]; conditions: max 1 µM
How it was run: as §1

AZD1390 = compound: CC(C)n1c(=O)n(C)c2cnc3cc(F)c(-c4ccc(OCCCN5CCCCC5)nc4)cc3c21 [AZD1390]; conditions: max 0.3 µM
How it was run: as §1

SG3199 = compound: CC1=CN2[C@@H](C1)C=NC3=CC(=C(C=C3C2=O)OC)OCCCCCOC4=C(C=C5C(=C4)N=C[C@@H]6CC(=CN6C5=O)C)OC [SG3199]; conditions: max 0.001 µM
How it was run: as §1

Carboplatin = compound: C1CC(C1)(C(=O)[O-])C(=O)[O-].N.N.[Pt+2] [Carboplatin]; conditions: max 10 µM
How it was run: as §1

Lapatinib = compound: CS(=O)(=O)CCNCc1ccc(-c2ccc3ncnc(Nc4ccc(OCc5cccc(F)c5)c(Cl)c4)c3c2)o1 [Lapatinib]; conditions: max 10 µM
How it was run: as §1

Capivasertib = compound: C1CN(CCC1(C(=O)N[C@@H](CCO)C2=CC=C(C=C2)Cl)N)C3=NC=NC4=C3C=CN4 [Capivasertib]; conditions: max 10 µM
How it was run: as §1

Cell Line	IC50, cell viability 72 h (Trametinib) [nM]	IC50, cell viability 72 h (Palbociclib) [nM]	IC50, cell viability 72 h (MK-2206) [nM]	IC50, cell viability 72 h [1] [nM]	IC50, cell viability 72 h (Etoposide) [nM]	IC50, cell viability 72 h (Doxorubicin) [nM]	IC50, cell viability 72 h (AZD1775) [nM]	IC50, cell viability 72 h (Olaparib) [nM]	IC50, cell viability 72 h (Venetoclax) [nM]	IC50, cell viability 72 h (AZD4320) [nM]	IC50, cell viability 72 h (SN-38) [nM]	IC50, cell viability 72 h (AZD5153) [nM]	IC50, cell viability 72 h (AZD6738) [nM]	IC50, cell viability 72 h (AZD2811) [nM]	IC50, cell viability 72 h (5-Fluorouracil) [nM]	IC50, cell viability 72 h (AZD8186; max 10 µM) [nM]	IC50, cell viability 72 h (AZD5363) [nM]	IC50, cell viability 72 h (Selumetinib) [nM]	IC50, cell viability 72 h (AZD5991) [nM]	IC50, cell viability 72 h (Paclitaxel) [nM]	IC50, cell viability 72 h (AZD0156) [nM]	IC50, cell viability 72 h (Crizotinib) [nM]	IC50, cell viability 72 h (Taselisib) [nM]	IC50, cell viability 72 h (SRA737) [nM]	IC50, cell viability 72 h (Dasatinib) [nM]	IC50, cell viability 72 h (Gefitinib) [nM]	IC50, cell viability 72 h (Savolitinib) [nM]	IC50, cell viability 72 h (AZD7648) [nM]	IC50, cell viability 72 h (Alisertib) [nM]	IC50, cell viability 72 h (Gemcitabine) [nM]	IC50, cell viability 72 h (Prexasertib) [nM]	IC50, cell viability 72 h (AZD1390) [nM]	IC50, cell viability 72 h (SG3199) [nM]	IC50, cell viability 72 h (Carboplatin) [nM]	IC50, cell viability 72 h (Lapatinib) [nM]	IC50, cell viability 72 h (AZD8186; max 3 µM) [nM]	IC50, cell viability 72 h (Capivasertib) [nM]
KINGS-1 (Low Grade Glioma)	> 1000	> 10000	> 10000	> 5000	> 10000	> 1000	> 3000	> 10000	> 1000	> 1000	> 300	> 1000	> 10000	> 1000	> 20000	> 10000	> 10000	> 10000	> 1000	> 3000	> 3000	> 10000	> 10000	> 10000	> 2000	> 10000	> 1000	> 10000	> 10000	> 300	> 1000	> 300	> 1	> 10000	> 10000		
LC4-1 (B-Lymphoblastic Leukemia)	> 1000	4230	> 10000	3950	355	83.3	269	> 10000	3.63	2.54	2.26	74.3	1280	11.1	9630	> 10000	> 10000	> 10000	220	6.82	> 3000	3000	> 10000	3640	> 2000	> 10000	> 1000	> 10000	529	30.9	11.8	> 300	> 1	> 10000	6110		
NB7 (Neuroblastoma)	> 1000	> 10000	> 10000	> 5000	6520	> 1000	963	> 10000	> 1000	> 1000	34.9	> 1000	> 10000	> 1000	> 20000	> 10000	> 10000	> 10000	> 1000	268	> 3000	> 10000	> 10000	> 10000	> 2000	> 10000	> 1000	> 10000	6060	141	72	> 300	> 1	> 10000	> 10000		
NCI-N87 (Gastric Carcinoma)	404	> 10000	6770	> 5000	6740	423	1690	> 10000	> 1000	> 1000	59.8	> 1000	4360	> 1000	> 20000	> 10000	4230	> 10000	> 1000	430	> 3000	> 10000	218	> 10000	1850	1960	> 1000	> 10000	> 10000	88.7	75.5	> 300	> 1	> 10000	77		
PF-382 (T-Lymphoblastic Leukemia)	> 1000	2080	1500			85.8	331	> 10000	> 1000	175	3.65	79	3220	34.4				> 10000	> 1000		> 3000	4070	2780		207	> 10000	> 1000	> 10000	391		17.2	> 300	> 1		> 10000	> 3000	2250
